We go through two molecules from patent US20120329736A1, “Treatment for gastrointestinal disorders using a selective, site-activated binding system” (priority 2011, published 2012).

A short description of data set [1]: Hydrogen peroxide retention by extracts after desiccation and rehydration (colorimetric strips). The format is physicochemical. The following applies: dissolved in 35% hydrogen peroxide, heated at 80° C., desiccated, rehydrated. How it is done: In order to compare the samples provided above, a test series was prepared in 30 ml tubes containing from 1 g-10 g of the above extracts of Chinese Gall, Green Tea, Pomegranate and Resveratrol. Each was dissolved in 20 ml of 35% hydrogen peroxide then separate to two aliquots. One part was heated at 80° C. to a dark viscous semi-liquid and allowed to desiccate to a final volume of 5 ml. Each was rehydrated and serially diluted to detection range.

For data set [2] the following is noted: cited from earlier work.
Data set [3] deals with broad spectrum of bacteria, gram positive and gram negative. The following applies: cited from earlier work.

Values after ≈ are worked out from the molar mass of the structure shown.

Take `Oc1ccc(C=Cc2cc(O)cc(O)c2)cc1` [Resveratrol]: in data set [1], the peroxide retention capability entry is recorded as “relatively less ability to form stable perhydrates”. Also, the water solubility in data set [2] is 3 µg/mL (≈ 13.1 µM). Turning to RIFAXAMIN, in data set [3], the “MIC performance compared to the binding system” value is “performed poorly compared to the binding system”.
